Experimental data published in US11058758B2, “TH1-inducing adjuvant comprising combination of different nucleic acid adjuvants, and use of same” (National Institutes of Biomedical Innovation, Health and …, priority 2014, dated 2021).

What was measured:
[1] = test system: C57BL/6J mice; assay: Intramuscular OVA immunization of mice: serum antibodies and splenocyte cytokines; type: in vivo, mouse; conditions: for serum anti-OVA IgG1 titer / OVA-specific IL-13 production by splenocytes: i.m. day 0 and day 10 with OVA; for serum anti-OVA IgG1 titer: serum day 17; for OVA-specific IL-13 production by splenocytes: splenocytes day 17, OVA 48 hours
Method: Mice were immunized intramuscularly on day 0 and day 10 with K3 CpG (10 μg), 3′3′/2′3′-cGAMP (1 μg), c-di-GMP (1 μg), DMXAA (50 μg), or OVA (10 μg) comprising or not comprising K3+3′3′/2′3′-cGAMP/c-di-GMP/DMXAA. On day 17, OVA specific sera IgG1 and IgG2c were measured by ELISA.
(B—C) mice were immunized intramuscularly on day 0 and day 10 with K3 CpG (10 μg), 3′3′/2′3′-cGAMP (1 μg), c-di-GMP (1 μg), DMXAA (50 μg), or OVA (10 μg) comprising or not comprising K3+3′3′/2′3′-cGAMP/c-di-GMP/DMXAA. Splenocytes were stimulated for 48 hours with OVA (10 μg/ml) protein. Production of IFNγ and IL-13 was measured by ELISA.
On day 17, the splenocytes were isolated and stimulated for 48 hours with a MHC class I (OVA257) or a MHC class II (OVA323) specific OVA or an OVA peptide.
On day 17, OVA specific sera IgG1 and IgG2c were measured by ELISA as previously described [Kuroda et al., Immunity. (2011) 34; 514-526]. The secondary antibodies used in ELISA of IgG2c and IgG1 were horseradish peroxidase conjugate goat anti-mouse IgG2c and IgG1 (Bethyl Laboratories, Montgomery, Tex.). On day 17, splenocytes were collected to prepare a single cell suspension using gentle MACS dissociator (miltenyi Biotech, Gladbach, Germany). […] IFNγ and IL-13 production was measured by ELISA.

[2] = test system: IRF3/7, STING, MyD88, IL-12, and type I IFN signaling
Method: The vertical axis of the left panel indicates the concentration of IFNγ (ng/ml), and the vertical axis of the right panel indicates the concentration of IL-13 (ng/ml). […] The splenocytes were stimulated for 48 hours with OVA.
On day 17, OVA specific sera IgG2c and IgG1 were measured by ELISA.
The vertical axis of the left panel indicates the concentration of IFNγ (ng/ml), and the vertical axis of the right panel indicates the concentration of IL-13 (ng/ml). […] (D) The splenocytes were stimulated for 48 hours with OVA proteins.
On day 17, OVA specific serum IgG2c and IgG1 were measured by ELISA. Further, splenocytes were stimulated for 48 hours with OVA to measure IFNγ production by ELISA.
On day 17, OVA specific sera IgG2c and IgG1 were measured by ELISA. Further, splenocytes were stimulated for 48 hours with an OVA protein to measure IFNγ production by ELISA.

[3] = test system: mice; assay: OVA specific serum IgE after immunization; conditions: i.m. day 0 and day 10, serum day 17

| SMILES | serum anti-OVA IgG1 titer [1] | OVA-specific IL-13 production by splenocytes [1] | dependency of Th2 responses on type I IFN signaling ([2]; IFNAR KO mice) | dependency of induced antibody responses on type I IFN signaling ([2]; IFNAR KO mice) | dependency of induced T cell responses on IRF3/7 and MyD88 ([2]; IRF3/7 DKO and MyD88 KO mice) | dependency of induced antibody and T cell responses on STING ([2]; Tmem173gt mice) | adjuvant type ([1]; OVA immunization, antibody and T cell responses) | IgE of the serum in mice immunized with OVA [3] |
| --- | --- | --- | --- | --- | --- | --- | --- | --- |
| Cc1ccc2c(=O)c3cccc(CC(=O)O)c3oc2c1C [DMXAA] | high | production of OVA-specific IL-13 | – | – | – | – | – | – |
| Nc1nc2c(ncn2[C@@H]2O[C@@H]3COP(=O)(O)O[C@H]4[C@@H](O)[C@H](n5cnc6c(=O)[nH]c(N)nc65)O[C@@H]4COP(=O)(O)O[C@H]3[C@H]2O)c(=O)[nH]1 [c-di-GMP] | high | production of OVA-specific IL-13 | – | – | – | – | – | – |
| Nc1nc2c(ncn2[C@@H]2O[C@@H]3COP(=O)(O)O[C@H]4[C@@H](O)[C@H](n5cnc6c(N)ncnc65)O[C@@H]4COP(=O)(O)O[C@H]3[C@H]2O)c(=O)[nH]1 [cGAMP, 3′3′-cGAMP] | high | production of OVA-specific IL-13 | not dependent thereon | dependent on type I IFN signaling | partially dependent on IRF3/7 and surprisingly dependent on MyD88 | completely dependent on STING | type 2 adjuvant | induce IgE |
